# Columns and labels:
# [1] = tested on: Arabidopsis; assay: Arabidopsis vertical plate growth assay (primary root length, shoot biomass); type: in vivo, Arabidopsis thaliana; details: low phosphate
# Description: (§1) All Arabidopsis plant experiments were performed using the Arabidopsis thaliana Columbia-0 background. The Arabidopsis pSPX1::GUS line is described in the […] 2008, 54: 965-975. For rice, the cultivar Nipponbare was used. For maize, the cultivars DKC 2931 and B104 were used for regular pot experiments and sand-based pot experiments, respectively. For soybean, the cultivar Primus was used. […] The medium was solidified due to the addition of 0,6% Gelrite, unless stated otherwise. In case of vertical plates (root length and root hair measurements), the medium was supplied with 0.5% of sucrose and 1 µM (low phosphate, 1 µM KH2PO4, 9.9 mM KCI), 10 µM (low phosphate 10 µM KH2PO4, 9.9 mM KCI) or 1.25 mM KH2PO4 (high phosphate). Arabidopsis seeds were stratified for 2 days at 4 °C before germination. Seedlings were germinated in climate-controlled growth chambers at 22 °C under continuous light (100 µmol m^-2 s^-1). Husked rice seeds were germinated on wetted Whatman paper for 2 days at 37 °C and then transferred to Sterivent boxes or square Petri dishes with solid medium. Maize and soybean seeds were wetted 24 hours at room temperature prior to sowing in pots.
# Arabidopsis primary root growth experiments were done on MS1/2 on vertical standing plates and roots were measured 11 days after germination. Roots were imaged using a flatbed scanner (EPSON Expression 11000XL) and root length was measured using ImageJ software. Arabidopsis shoot biomass was determined in 11 days after germination and growth on vertical standing plates with modMS. Arabidopsis leaf area was measured 21 days after germination on horizontal plates with modMS medium. Plates were scanned from the top using a flatbed scanner (EPSON Expression 11000XL) and the visible leaf area was measured using ImageJ software. Rice plate experiments used vertically standing Petri dishes containing MS1/2 medium (low phosphate - 0.001 mM) solidified with 0.8% washed agar. Plant height was measured 11 days after germination. Rice box experiments used modMS medium and a low phosphate condition of 0.025 mM phosphate. Plant height was measured 13 days after germination. All growth experiments occurred with 10 µM of compound and in low phosphate conditions, unless stated otherwise. Controls always received the same DMSO concentration.
# [2] = tested on: Rice; assay: Rice plate experiment; type: in vivo; details: low phosphate 0.001 mM, 10 µM, 11 days after germination
# Description: (§2) All Arabidopsis plant experiments were performed using the Arabidopsis thaliana Columbia-0 background. The Arabidopsis pSPX1::GUS line is described in the […] 2008, 54: 965-975. For rice, the cultivar Nipponbare was used. For maize, the cultivars DKC 2931 and B104 were used for regular pot experiments and sand-based pot experiments, respectively. For soybean, the cultivar Primus was used. […] The medium was solidified due to the addition of 0,6% Gelrite, unless stated otherwise. […]
# (§3) Arabidopsis primary root growth experiments were done on MS1/2 on vertical standing plates and roots were measured 11 days after germination. Roots were imaged using a flatbed scanner (EPSON Expression 11000XL) and root length was measured using ImageJ software. Arabidopsis shoot biomass was determined in 11 days after germination and growth on vertical standing plates with modMS. Arabidopsis leaf area was measured 21 days after germination on horizontal plates with modMS medium. Plates were scanned from the top using a flatbed scanner (EPSON Expression 11000XL) and the visible leaf area was measured using ImageJ software. […] Plant height was measured 11 days after germination. […] Plant height was measured 13 days after germination. […]
# [3] = tested on: Maize; assay: Regular maize pot experiment (potting soil); type: in vivo; details: low phosphate, 10 µM once a week
# Description: as §1
# (§4) Regular Arabidopsis and maize pot experiments used an unfertilized potting soil, which was supplemented at the start of the experiment with 50 ml H2O containing 0.25 g/l NH4NO3 and 0.44 g/l (high phosphate) or no (maize and soybean) or 0.11 g/l KH2PO (Arabidopsis) for low phosphate conditions. For the sand-based maize pot experiment, sand was supplemented with 50 ml H2O containing 0.25 g/l NH4NO3 and 0.38 g/l (high phosphate) or 0.02 g/l (low phosphate) KH2PO4. […] Compound concentration was 10 µM, calculated based on the total water content after watering, and was added at the start of the experiment (Arabidopsis) or once a week (maize). […] All parameters in the sand experiment, except the rate of leaf 4 (measured the first 4 days after emergence), were measured 19 days after sowing. Measurements in the pot experiments with potting soil were done after 4 weeks of growth, except for leaf 5, which was measured at 26 days. s. […]
# [4] = tested on: Arabidopsis, rice, soybean and maize; assay: Growth experiments in different growing systems and plant species (summary statement); type: in vivo; details: result in words; plate, box or pot experiments
# Description: as §2, §3
# [5] = tested on: Maize; assay: Sand-based maize pot experiment; type: in vivo; details: low phosphate, 10 µM
# Description: as §1, §4
# [6] = tested on: SPX1; assay: Chemical activity assessment: SPX1 phosphate starvation biomarker, pSPX1::GUS reporter line, GUS stained area; type: in vivo, Arabidopsis thaliana
# How it was run: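 Arabidopsis Col-0 pSPX1::GUS seedlings grown in 96-well plates in low-phosphate liquid modMS with 1% sucrose, compounds at 50 µM final (1% DMSO). At 7 days after germination, GUS stained 1.5 h at 37 °C and blue signal area measured from scans. Wells with leaf area 50% or less of control were omitted.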
# [7] = tested on: Arabidopsis; assay: Arabidopsis horizontal plate growth assay (leaf area); type: in vivo, Arabidopsis thaliana; details: 10 µM, 21 days after germination
# Description: as §2, §3
# [8] = tested on: Rice; assay: Rice box experiment; type: in vivo; details: low phosphate 0.025 mM, 10 µM, 13 days after germination
# Description: as §2, §3
# [9] = tested on: Maize; assay: Long term maize pot experiment, cultivar DKC2931 (Phenovision platform); type: in vivo; details: DKC2931, 70 days
# Description: (§5) Regular Arabidopsis and maize pot experiments used an unfertilized potting soil, which was supplemented at the start of the experiment with 50 ml H2O containing 0.25 g/l NH4NO3 and 0.44 g/l (high phosphate) or no (maize and soybean) or 0.11 g/l KH2PO (Arabidopsis) for low phosphate conditions. For the sand-based maize pot experiment, sand was supplemented with 50 ml H2O containing 0.25 g/l NH4NO3 and 0.38 g/l (high phosphate) or 0.02 g/l (low phosphate) KH2PO4. Potassium was balanced via addition of KCI. Compound concentration was 10 µM, calculated based on the total water content after watering, and was added at the start of the experiment (Arabidopsis) or once a week (maize). Indexed chlorophyll contents were received via a SPAD 502 Plus Chlorophyll Meter. All parameters in the sand experiment, except the rate of leaf 4 (measured the first 4 days after emergence), were measured 19 days after sowing. Measurements in the pot experiments with potting soil were done after 4 weeks of growth, except for leaf 5, which was measured at 26 days. s. The long term maize pot experiment was performed on the automated Phenovision platform (see Mertens et al, 2021, 20 https.l/doi.org/10.3389/fpls.2021.640914) with maize cultivars B104 and DKC2931. End point measurements occurred after 90 days (B104) or 70 days (DKC2931). Plants were grown on an unfertilized potting soil, which was fertilized bi-weekly with 50 mL modified Hoagland solution (2.5 x concentrated; but with 0.25 mM KH2PO4.).
# [10] = tested on: Arabidopsis; assay: Arabidopsis pot experiment; type: in vivo, Arabidopsis thaliana; details: low phosphate, 10 µM, 4 weeks of growth
# Description: as §2
# as §4, with “conditions.” for “conditions. For the sand-based maize pot experiment, sand was supplemented with 50 ml H2O containing 0.25 g/l NH4NO3 and 0.38 g/l (high phosphate) or 0.02 g/l (low phosphate) KH2PO4.”
# [11] = tested on: Maize; assay: Long term maize pot experiment, cultivar B104 (Phenovision platform); type: in vivo
# Description: as §5
# [12] = Arabidopsis vertical plate, 10 µM, 11 days after germination
# [13] = Maize pot long term, B104, 90 days
smiles,measurement,setting,value
Cc1nc(N2CCOCC2)sc1CNCC1CN(C)CCO1 (stereo not shown) [Compound 4],Primary root length (cm),[1]; [12],3.8 cm
same,Shoot biomass,[1]; [12],26 mg
same,Primary root length (in % versus control),"[1]; Table 2, versus control without compound",211%
same,primary root length relative to the control without compound,"[1]; result in words, 10 µM, 11-day-old Arabidopsis plants",almost double
same,Plant height (cm),[2],15.8 cm
same,Plant height (cm),[3]; 4 weeks of growth,62 cm
same,Shoot weight,[3]; 4 weeks of growth,4.4 g
same,Leaf 5 (cm),[3]; 26 days,45 cm
same,"effect on the shoot biomass, leaf area or plant height",[4],clear positive effect
same,Crown root number,[5]; 19 days after sowing,7
same,Plant height (cm),[5]; 19 days after sowing,26 cm
same,Growth rate of leaf 4,[5]; first 4 days after emergence,2.3 cm/day
same,GUS (SPX1) stained area normalized to the number of seeds (pixels),"[6]; Table 2, 50 µM compound, low phosphate modMS liquid medium, 7 days after germination, low phosphate control average of the same plate",9 pixels
same,suppression of the SPX1 biomarker (blue GUS staining),"[6]; result in words, 7 days of growth in low phosphate conditions",practically completely suppressed
same,Leaf area (mm^2),[7]; low phosphate,91 mm^2
same,Leaf area (mm^2) in suboptimal phosphate conditions,[7]; suboptimal phosphate,151 mm^2
same,Plant height (cm),[8],5.1 cm
same,Biomass,[9],31 g
same,Plants with developed ears (%),[9],100%
same,Sum of leaf length (cm),[9],3894 cm
same,Rosette size (cm^2),[10],19 cm^2
same,Biomass,[11]; [13],29 g
same,Plants with developed ears (%),[11]; [13],54%
same,Sum of leaf length (cm),[11]; [13],5473 cm
same,ear formation,"[11]; result in words, maize",stimulated

# Source: patent EP4111863A1, “PHOSPHORUS USE EFFICIENCY ENHANCERS AS PLANT GROWTH PROMOTORS” (EuroChem Antwerpen, priority 2021, dated 2023)
